Laboratory results published in ChEMBL document CHEMBL3997765 (Medchemcomm, 2016).
Activity calls are given as the source filed them. No cut-off for these calls is given here.

How the values were obtained:
[1] = target: T1, Mitogen-activated protein kinase 14 (Homo sapiens, UniProt Q16539); experiment: Inhibition of full length recombinant human GST-tagged p38alpha expressed in Escherichia coli at 10 uM using Ser/Thr04 peptide as substrate in presence of inactive MAPKAPK2 after 1 hr by FRET assay relative to control
T1 sequence (Q16539 whole entry): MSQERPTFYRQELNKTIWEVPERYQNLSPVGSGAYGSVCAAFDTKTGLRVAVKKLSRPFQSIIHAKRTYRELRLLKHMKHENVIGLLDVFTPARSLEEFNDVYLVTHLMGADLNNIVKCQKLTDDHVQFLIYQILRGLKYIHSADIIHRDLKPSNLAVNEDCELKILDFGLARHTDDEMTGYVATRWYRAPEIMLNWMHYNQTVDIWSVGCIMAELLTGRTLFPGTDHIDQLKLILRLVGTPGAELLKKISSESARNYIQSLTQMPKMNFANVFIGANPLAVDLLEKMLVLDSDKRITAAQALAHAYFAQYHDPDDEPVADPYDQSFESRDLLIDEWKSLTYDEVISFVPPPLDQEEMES

[2] = target: T1, Mitogen-activated protein kinase 14; experiment: Inhibition of p38alpha phosphorylation in human U266 cells at 10 uM after 3 hrs by western blot analysis; format: cell-based
[3] = target: T1, Mitogen-activated protein kinase 14; experiment: Inhibition of p38alpha phosphorylation in human MM1S cells after 3 hrs by western blot analysis; format: cell-based
[4] = target: T1, Mitogen-activated protein kinase 14; experiment: Inhibition of full length recombinant human GST-tagged p38alpha expressed in Escherichia coli by Z'-Lyte assay

Compound	inhibition [1] [%]	other results
Cc1ccc(C2=Nc3c(ncnc3S(=O)(=O)c3ccc(C)cc3)[S+]([O-])c3ccc(C)cc32)cc1 (stereo unspecified)	100	inhibition [2]: Active; inhibition [3]: Dose-dependent effect; IC50 [4]: 42.7 nM
Cc1ccc2c(c1)C(Cc1ccccc1)=Nc1c(NC3CCCCC3)ncnc1S2	29	–
O=[N+]([O-])c1ccccc1C1=Nc2c(Sc3ccccc3)ncnc2Sc2ccccc21	63	–
Cc1ccc(C2=Nc3c(NC4CCCCC4)ncnc3Sc3ccc(Cl)cc32)cc1	11	–
Cc1ccc2c(c1)C(c1ccc(F)cc1)=Nc1c(NCCO)ncnc1S2	-3	–
CCCC1=Nc2c(NCc3ccccc3)ncnc2Sc2ccccc21	5	–
Cc1ccc(S(=O)(=O)c2ncnc3c2N=C(c2ccccc2)c2cc(C)ccc2[S+]3[O-])cc1 (stereo unspecified)	100	–
c1ccc(CC2=Nc3c(Sc4ccccc4)ncnc3Sc3ccccc32)cc1	9	–
c1ccc(Sc2ncnc3c2N=C(c2ccccc2)c2ccccc2S3)cc1	18	–
CCCCNc1ncnc2c1N=C(c1ccccc1)c1cc(C)ccc1S2	-4	–
Cc1ccc2c(c1)C(Cc1ccccc1)=Nc1c(NCc3ccccc3)ncnc1S2	19	–
CCCC1=Nc2c(ncnc2[S+]([O-])c2ccccc2)Sc2ccccc21 (stereo unspecified)	73	IC50 [4]: 969 nM
c1ccc(C2=Nc3c(ncnc3N3CCCC3)Sc3ccccc32)cc1	-4	–
c1ccc(Sc2ncnc3c2N=C(c2cccnc2)c2ccccc2S3)cc1	98	IC50 [4]: 1250 nM
[O-][S+](c1ccc(Cl)cc1)c1ncnc2c1N=C(c1ccccc1)c1cc(Cl)ccc1S2 (stereo unspecified)	98	IC50 [4]: 855 nM
Cc1ccc2c(c1)C(c1cccnc1)=Nc1c(NCc3ccccc3)ncnc1S2	18	–
CCCC1=Nc2c(Sc3ccccc3)ncnc2Sc2ccccc21	11	–
CCCCNc1ncnc2c1N=C(c1ccccc1)c1cc(Cl)ccc1S2	-6	–

Continued, in another order:

inhibition [1] [%]	Compound	other results
7	Fc1ccc(C2=Nc3c(Sc4ccccc4)ncnc3Sc3ccccc32)cc1	–
0	Cc1ccc(Sc2ncnc3c2N=C(c2ccc(F)cc2)c2cc(C)ccc2S3)cc1	–
16	CCCC1=Nc2c(Sc3ccc(C)cc3)ncnc2Sc2ccc(C)cc21	–
88	Cc1ccc(C2=Nc3c(ncnc3[S+]([O-])c3ccc(C)cc3)Sc3ccc(C)cc32)cc1 (stereo unspecified)	–
99	Cc1ccc(C2=Nc3c(ncnc3[S+]([O-])c3ccc(Cl)cc3)Sc3ccc(Cl)cc32)cc1 (stereo unspecified)	–
12	Cc1ccc(Sc2ncnc3c2N=C(c2ccccc2)c2cc(C)ccc2S3)cc1	–
0	Clc1ccc(Sc2ncnc3c2N=C(Cc2ccccc2)c2cc(Cl)ccc2S3)cc1	–
3	Clc1ccc(Sc2ncnc3c2N=C(c2ccccc2)c2cc(Cl)ccc2S3)cc1	–
10	COc1ccc(Sc2ncnc3c2N=C(Cc2ccccc2)c2cc(OC)ccc2S3)cc1	–
-2	Cc1ccc(C2=Nc3c(NCc4ccccc4)ncnc3Sc3ccc(Cl)cc32)cc1	–
30	COc1ccc(Sc2ncnc3c2N=C(c2ccc(C)cc2)c2cc(OC)ccc2S3)cc1	–
95	Cc1ccc([S+]([O-])c2ncnc3c2N=C(c2ccccc2)c2cc(C)ccc2S3)cc1 (stereo unspecified)	–
1	Cc1ccc(Sc2ncnc3c2N=C(Cc2ccccc2)c2cc(C)ccc2S3)cc1	–
4	Cc1ccc2c(c1)C(c1ccc(F)cc1)=Nc1c(N)ncnc1S2	–
4	Cc1ccc(Sc2ncnc3c2N=C(c2cccnc2)c2cc(C)ccc2S3)cc1	–
4	Cc1ccc(C2=Nc3c(Sc4ccc(Cl)cc4)ncnc3Sc3ccc(Cl)cc32)cc1	–
100	Cc1ccc([S+]([O-])c2ncnc3c2N=C(c2cccnc2)c2cc(C)ccc2S3)cc1 (stereo unspecified)	–
